Measurements taken from the kinase profiling compilation of Christmann-Franck et al. (2016).

Columns and labels:
Experiment in all cases: radiometric filter-binding kinase assay, Kinase HotSpot
Details in all cases: compound 0.5 µM; ATP 10 µM
[1] = target: IGF1R (human) (UniProt P08069)
[2] = target: CSNK1G3 (human) (UniProt Q9Y6M4)
[3] = target: CAMK2A (human) (UniProt Q9UQM7)
[4] = target: LTK (human) (UniProt P29376)
[5] = target: EPHA7 (human) (UniProt Q15375)
[6] = target: HIPK1 (human) (UniProt Q86Z02)
[7] = target: CAMK1D (human) (UniProt Q8IU85)
[8] = target: PNCK (human) (UniProt Q6P2M8)
[9] = target: EPHA4 (human) (UniProt P54764)
[10] = target: STK3 (human) (UniProt Q13188)
[11] = target: MAP3K2 (human) (UniProt Q9Y2U5)
[12] = target: FER (human) (UniProt P16591)
[13] = target: NTRK2 (human) (UniProt Q16620)
[14] = target: SGK3 (human) (UniProt Q96BR1)
[15] = target: FGFR2 (human) (UniProt P21802)
[16] = target: MAPK11 (human) (UniProt Q15759)
[17] = target: ADRBK2 (human) (UniProt P35626)
[18] = target: PDPK1 (human) (UniProt O15530)
[19] = target: SLK (human) (UniProt Q9H2G2)
[20] = target: STK24 (human) (UniProt Q9Y6E0)
[21] = target: MAPKAPK5 (human) (UniProt Q8IW41)
[22] = target: ULK1 (human) (UniProt O75385)
[23] = target: MAPK14 (human) (UniProt Q16539)
[24] = target: TYK2 JH1 catalytic (human) (UniProt P29597)
[25] = target: HIPK4 (human) (UniProt Q8NE63)
[26] = target: CDK1 CCNB1 (human) (UniProt P06493+P14635)
[27] = target: MYLK (human) (UniProt Q15746)
[28] = target: CSNK1G1 (human) (UniProt Q9HCP0)
[29] = target: MAP4K2 (human) (UniProt Q12851)
[30] = target: CDK2 CCNA2 (human) (UniProt P24941+P20248)
[31] = target: CSNK1D (human) (UniProt P48730)
[32] = target: MAPK12 (human) (UniProt P53778)
[33] = target: EPHB2 (human) (UniProt P29323)
[34] = target: CAMK1 (human) (UniProt Q14012)
[35] = target: TAOK2 (human) (UniProt Q9UL54)
[36] = target: CDC42BPA (human) (UniProt Q5VT25)
[37] = target: TGFBR1 (human) (UniProt P36897)
[38] = target: EPHA3 (human) (UniProt P29320)
[39] = target: FRK (human) (UniProt P42685)
[40] = target: RIPK2 (human) (UniProt O43353)
[41] = target: CAMK2B (human) (UniProt Q13554)
[42] = target: ERBB4 (human) (UniProt Q15303)

SLK (human), sequence (Q9H2G2 whole entry, looked up): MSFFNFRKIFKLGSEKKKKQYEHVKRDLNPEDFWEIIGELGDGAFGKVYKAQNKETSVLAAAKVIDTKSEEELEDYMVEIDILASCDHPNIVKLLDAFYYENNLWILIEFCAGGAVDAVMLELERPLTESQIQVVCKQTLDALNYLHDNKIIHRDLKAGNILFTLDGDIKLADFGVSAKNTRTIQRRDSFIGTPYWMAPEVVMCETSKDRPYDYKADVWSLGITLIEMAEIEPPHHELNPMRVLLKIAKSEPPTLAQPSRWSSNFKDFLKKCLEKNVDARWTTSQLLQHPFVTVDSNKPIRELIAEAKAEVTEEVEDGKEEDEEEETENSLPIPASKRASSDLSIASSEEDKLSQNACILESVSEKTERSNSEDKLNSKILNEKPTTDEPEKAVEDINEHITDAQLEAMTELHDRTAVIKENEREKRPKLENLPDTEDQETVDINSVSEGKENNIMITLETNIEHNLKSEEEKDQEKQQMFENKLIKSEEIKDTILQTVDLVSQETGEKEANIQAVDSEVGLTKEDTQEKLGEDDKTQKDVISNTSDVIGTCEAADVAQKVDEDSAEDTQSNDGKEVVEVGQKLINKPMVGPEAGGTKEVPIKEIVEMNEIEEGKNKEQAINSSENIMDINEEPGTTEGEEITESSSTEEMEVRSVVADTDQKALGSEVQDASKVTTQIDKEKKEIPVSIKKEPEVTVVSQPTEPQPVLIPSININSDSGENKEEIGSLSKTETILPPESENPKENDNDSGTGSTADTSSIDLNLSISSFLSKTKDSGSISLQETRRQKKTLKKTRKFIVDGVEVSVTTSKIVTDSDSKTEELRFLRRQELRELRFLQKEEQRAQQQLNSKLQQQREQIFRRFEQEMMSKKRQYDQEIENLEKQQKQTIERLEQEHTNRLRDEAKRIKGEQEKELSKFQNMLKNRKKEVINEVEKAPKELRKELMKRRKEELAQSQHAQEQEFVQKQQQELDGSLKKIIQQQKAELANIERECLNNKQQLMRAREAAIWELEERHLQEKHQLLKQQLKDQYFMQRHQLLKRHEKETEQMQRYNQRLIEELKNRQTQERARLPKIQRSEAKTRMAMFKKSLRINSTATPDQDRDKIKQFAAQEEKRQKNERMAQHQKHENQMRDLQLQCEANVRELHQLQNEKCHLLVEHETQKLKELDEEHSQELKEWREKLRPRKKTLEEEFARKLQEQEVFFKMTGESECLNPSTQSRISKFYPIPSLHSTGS
TGFBR1 (human), sequence (P36897 whole entry, looked up): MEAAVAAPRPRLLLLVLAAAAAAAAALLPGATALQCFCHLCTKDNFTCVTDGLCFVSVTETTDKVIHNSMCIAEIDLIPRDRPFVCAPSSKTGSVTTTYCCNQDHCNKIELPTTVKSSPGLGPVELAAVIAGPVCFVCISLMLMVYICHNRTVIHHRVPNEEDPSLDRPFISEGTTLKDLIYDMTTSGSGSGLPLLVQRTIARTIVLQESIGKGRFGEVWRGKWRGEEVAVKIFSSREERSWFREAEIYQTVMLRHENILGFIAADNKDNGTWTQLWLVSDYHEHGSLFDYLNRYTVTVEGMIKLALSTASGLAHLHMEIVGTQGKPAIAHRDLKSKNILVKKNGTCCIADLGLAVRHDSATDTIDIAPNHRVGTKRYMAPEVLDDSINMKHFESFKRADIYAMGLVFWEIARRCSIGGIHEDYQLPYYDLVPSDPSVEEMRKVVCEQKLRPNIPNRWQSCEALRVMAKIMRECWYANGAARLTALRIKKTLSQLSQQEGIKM
CSNK1D (human), sequence (P48730 whole entry, looked up): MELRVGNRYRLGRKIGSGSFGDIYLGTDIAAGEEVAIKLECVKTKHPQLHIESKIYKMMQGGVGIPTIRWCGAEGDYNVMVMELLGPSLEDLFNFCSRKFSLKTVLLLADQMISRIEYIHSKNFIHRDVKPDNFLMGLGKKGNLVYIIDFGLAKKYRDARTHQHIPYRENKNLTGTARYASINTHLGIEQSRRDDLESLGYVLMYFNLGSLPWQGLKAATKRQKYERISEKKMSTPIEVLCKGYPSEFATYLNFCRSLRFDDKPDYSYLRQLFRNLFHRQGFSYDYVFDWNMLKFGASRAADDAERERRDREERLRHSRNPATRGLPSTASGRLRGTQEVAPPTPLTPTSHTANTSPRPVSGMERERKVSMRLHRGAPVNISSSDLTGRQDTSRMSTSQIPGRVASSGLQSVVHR
EPHA4 (human), sequence (P54764 whole entry, looked up): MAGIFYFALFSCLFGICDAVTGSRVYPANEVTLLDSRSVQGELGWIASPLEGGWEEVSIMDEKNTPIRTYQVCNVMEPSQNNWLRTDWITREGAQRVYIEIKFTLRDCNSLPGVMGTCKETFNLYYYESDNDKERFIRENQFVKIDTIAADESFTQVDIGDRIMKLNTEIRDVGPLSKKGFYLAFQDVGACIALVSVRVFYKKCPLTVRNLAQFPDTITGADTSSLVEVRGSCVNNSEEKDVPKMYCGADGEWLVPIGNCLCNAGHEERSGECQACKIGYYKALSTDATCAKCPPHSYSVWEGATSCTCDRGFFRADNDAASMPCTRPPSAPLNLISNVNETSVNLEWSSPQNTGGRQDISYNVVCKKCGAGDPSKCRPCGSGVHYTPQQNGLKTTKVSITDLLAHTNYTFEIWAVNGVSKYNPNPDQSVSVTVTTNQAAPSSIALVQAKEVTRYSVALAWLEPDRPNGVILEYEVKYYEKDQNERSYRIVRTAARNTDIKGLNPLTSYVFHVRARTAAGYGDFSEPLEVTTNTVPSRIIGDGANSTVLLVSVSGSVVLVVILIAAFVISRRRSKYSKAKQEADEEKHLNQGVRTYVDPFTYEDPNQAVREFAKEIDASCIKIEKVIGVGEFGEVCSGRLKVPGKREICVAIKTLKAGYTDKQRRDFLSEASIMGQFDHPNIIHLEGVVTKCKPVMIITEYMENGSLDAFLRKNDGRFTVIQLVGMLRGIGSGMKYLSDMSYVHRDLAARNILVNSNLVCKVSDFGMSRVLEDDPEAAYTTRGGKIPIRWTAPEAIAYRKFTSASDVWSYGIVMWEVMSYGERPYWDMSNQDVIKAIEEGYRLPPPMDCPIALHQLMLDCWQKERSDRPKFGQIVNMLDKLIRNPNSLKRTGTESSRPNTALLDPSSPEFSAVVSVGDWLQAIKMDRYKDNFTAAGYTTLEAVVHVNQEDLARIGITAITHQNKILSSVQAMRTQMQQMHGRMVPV
MAPK11 (human), sequence (Q15759 whole entry, looked up): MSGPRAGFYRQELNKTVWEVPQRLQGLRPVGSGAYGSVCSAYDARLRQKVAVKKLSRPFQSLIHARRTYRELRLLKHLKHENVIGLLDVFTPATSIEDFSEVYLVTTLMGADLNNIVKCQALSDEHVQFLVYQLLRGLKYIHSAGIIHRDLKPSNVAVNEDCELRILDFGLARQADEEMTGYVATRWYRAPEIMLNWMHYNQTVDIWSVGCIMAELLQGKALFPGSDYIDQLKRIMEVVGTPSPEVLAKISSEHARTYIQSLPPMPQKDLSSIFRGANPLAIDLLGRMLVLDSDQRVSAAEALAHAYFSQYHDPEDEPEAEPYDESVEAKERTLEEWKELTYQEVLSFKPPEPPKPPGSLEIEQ
STK24 (human), sequence (Q9Y6E0 whole entry, looked up): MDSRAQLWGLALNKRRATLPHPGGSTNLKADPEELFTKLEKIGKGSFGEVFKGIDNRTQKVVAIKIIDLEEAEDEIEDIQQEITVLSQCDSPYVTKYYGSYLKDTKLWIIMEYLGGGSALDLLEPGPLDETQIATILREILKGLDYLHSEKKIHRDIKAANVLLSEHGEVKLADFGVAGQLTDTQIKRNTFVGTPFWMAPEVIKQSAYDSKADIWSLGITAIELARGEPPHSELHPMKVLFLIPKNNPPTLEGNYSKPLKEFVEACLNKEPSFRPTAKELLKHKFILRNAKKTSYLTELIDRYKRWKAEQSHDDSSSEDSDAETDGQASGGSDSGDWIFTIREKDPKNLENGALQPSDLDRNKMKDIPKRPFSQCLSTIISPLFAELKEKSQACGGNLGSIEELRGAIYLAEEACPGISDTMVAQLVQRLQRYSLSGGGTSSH
EPHA7 (human), sequence (Q15375 whole entry, looked up): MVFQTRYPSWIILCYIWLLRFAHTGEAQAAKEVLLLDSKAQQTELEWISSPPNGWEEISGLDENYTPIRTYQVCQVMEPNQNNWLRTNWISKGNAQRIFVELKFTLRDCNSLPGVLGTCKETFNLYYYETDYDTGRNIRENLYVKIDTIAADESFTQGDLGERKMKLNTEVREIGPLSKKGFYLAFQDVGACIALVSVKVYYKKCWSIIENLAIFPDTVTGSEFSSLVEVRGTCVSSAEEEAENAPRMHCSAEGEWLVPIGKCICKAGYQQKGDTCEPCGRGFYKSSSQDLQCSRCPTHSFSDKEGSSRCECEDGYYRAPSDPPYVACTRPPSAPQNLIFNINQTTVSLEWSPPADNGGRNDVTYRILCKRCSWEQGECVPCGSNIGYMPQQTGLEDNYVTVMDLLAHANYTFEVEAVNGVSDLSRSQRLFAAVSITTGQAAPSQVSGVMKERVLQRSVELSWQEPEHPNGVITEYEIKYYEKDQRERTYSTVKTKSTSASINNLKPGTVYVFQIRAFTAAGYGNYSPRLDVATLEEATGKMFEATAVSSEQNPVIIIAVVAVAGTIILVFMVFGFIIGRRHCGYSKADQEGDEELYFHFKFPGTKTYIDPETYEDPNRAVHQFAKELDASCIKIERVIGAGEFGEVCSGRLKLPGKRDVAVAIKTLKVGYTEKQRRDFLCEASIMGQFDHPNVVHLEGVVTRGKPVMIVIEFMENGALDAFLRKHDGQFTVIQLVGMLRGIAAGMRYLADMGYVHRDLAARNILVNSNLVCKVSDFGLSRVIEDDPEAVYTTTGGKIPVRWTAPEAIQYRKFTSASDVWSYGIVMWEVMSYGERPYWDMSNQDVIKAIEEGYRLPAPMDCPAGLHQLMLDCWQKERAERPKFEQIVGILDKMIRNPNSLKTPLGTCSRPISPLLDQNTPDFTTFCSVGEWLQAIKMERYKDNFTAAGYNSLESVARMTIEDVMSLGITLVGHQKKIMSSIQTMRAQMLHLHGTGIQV

Compound: CCCNC(=O)Nc1ccc(Oc2ncnc3cc(OC)c(OC)cc23)cc1Cl
- residual activity [1]: 77%
- residual activity [2]: 105%
- residual activity [3]: 97.5%
- residual activity [4]: 95.7%
- residual activity [5]: 86.3%
- residual activity [6]: 96.8%
- residual activity [7]: 96.8%
- residual activity [8]: 95.4%
- residual activity [9]: 93.4%
- residual activity [10]: 85%
- residual activity [11]: 89.5%
- residual activity [12]: 74.1%
- residual activity [13]: 102%
- residual activity [14]: 95.5%
- residual activity [15]: 91.3%
- residual activity [16]: 88.5%
- residual activity [17]: 96.6%
- residual activity [18]: 86.8%
- residual activity [19]: 80%
- residual activity [20]: 91.7%
- residual activity [21]: 92.2%
- residual activity [22]: 83.2%
- residual activity [23]: 122%
- residual activity [24]: 95.2%
- residual activity [25]: 93.5%
- residual activity [26]: 98%
- residual activity [27]: 97.4%
- residual activity [28]: 97.1%
- residual activity [29]: 83.1%
- residual activity [30]: 92.8%
- residual activity [31]: 98.9%
- residual activity [32]: 61.9%
- residual activity [33]: 90.8%
- residual activity [34]: 96.7%
- residual activity [35]: 94.5%
- residual activity [36]: 77.8%
- residual activity [37]: 102%
- residual activity [38]: 98.5%
- residual activity [39]: 87.2%
- residual activity [40]: 84.8%
- residual activity [41]: 94.9%

Compound: COc1cc2ncnc(Nc3ccc(F)c(Cl)c3)c2cc1OCCCN1CCOCC1
- residual activity [1]: 92.3%
- residual activity [2]: 103%
- residual activity [3]: 94.4%
- residual activity [4]: 90.4%
- residual activity [5]: 74.3%
- residual activity [6]: 97.6%
- residual activity [7]: 88.6%
- residual activity [8]: 108%
- residual activity [9]: 90.2%
- residual activity [10]: 93.6%
- residual activity [11]: 109%
- residual activity [12]: 94.1%
- residual activity [13]: 98.2%
- residual activity [14]: 98.3%
- residual activity [15]: 98.7%
- residual activity [16]: 95.1%
- residual activity [17]: 97.9%
- residual activity [18]: 88.2%
- residual activity [19]: 83.7%
- residual activity [20]: 102%
- residual activity [21]: 92.7%
- residual activity [22]: 93%
- residual activity [23]: 74.6%
- residual activity [24]: 102%
- residual activity [25]: 90.4%
- residual activity [26]: 99.1%
- residual activity [27]: 89.7%
- residual activity [28]: 99.5%
- residual activity [29]: 104%
- residual activity [30]: 95.9%
- residual activity [31]: 90.4%
- residual activity [32]: 97.5%
- residual activity [33]: 87.7%
- residual activity [34]: 102%
- residual activity [35]: 106%
- residual activity [36]: 87.8%
- residual activity [42]: 24.2%
- residual activity [37]: 99.6%
- residual activity [38]: 94.4%
- residual activity [39]: 97.9%
- residual activity [41]: 95.4%

Compound: O=C(Nc1ccc(Cl)cc1)c1ccccc1NCc1ccncc1
- residual activity [2]: 105%
- residual activity [3]: 99.9%
- residual activity [4]: 104%
- residual activity [5]: 95%
- residual activity [6]: 92.7%
- residual activity [7]: 95.3%
- residual activity [8]: 94.8%
- residual activity [9]: 96.5%
- residual activity [10]: 94.2%
- residual activity [11]: 92.8%
- residual activity [12]: 80.4%
- residual activity [13]: 102%
- residual activity [14]: 92.5%
- residual activity [15]: 95.7%
- residual activity [16]: 91.4%
- residual activity [17]: 96.1%
- residual activity [18]: 95.3%
- residual activity [19]: 86.6%
- residual activity [20]: 92.6%
- residual activity [21]: 88.7%
- residual activity [22]: 86.9%
- residual activity [23]: 128%
- residual activity [24]: 92.1%
- residual activity [25]: 103%
- residual activity [26]: 96.3%
- residual activity [27]: 105%
- residual activity [28]: 110%
- residual activity [29]: 97.3%
- residual activity [30]: 92.2%
- residual activity [31]: 98.1%
- residual activity [32]: 97.3%
- residual activity [33]: 84.7%
- residual activity [34]: 103%
- residual activity [35]: 102%
- residual activity [36]: 90.5%
- residual activity [42]: 71.3%
- residual activity [37]: 100%
- residual activity [38]: 92.1%
- residual activity [39]: 62.8%
- residual activity [40]: 82.9%
- residual activity [41]: 93.4%
